Laboratory results: patent US20180050055A1, “Exploiting nutrient deprivation for modulation of glycosylation - research diagnostic, therapeutic, and biotechnology applications” (priority 2016, published 2018)

Legend:
Assay type in all cases: cell-based, Human
[1] = tested on: HB4A; assay: Quantification of CMP-Neu5Ac, UDP-GlcNAc, surface Neu5Ac and surface Neu5Gc (HPLC)
Experimental: (§1) Protocol for nutrient deprivation of cells in suspension: Step 1, cell cultures were harvested as described above. Step 2, cells were resuspended in serum-free RPMI-1640 medium and pelleted by centrifugation at 900×g for 5 min; during this step cells experience 10 min of nutrient deprivation in serum-free media without Neu5Ac. Step 3, the cells were rinsed twice in 37° C. PBS by centrifugation for 5 min and 1 mL aliquots of 1×10^4 cells were pipetted gently into 15 mL BD Falcon tubes; during this step the cells experience an additional 20 min of nutrient-deprivation. Step 3, cell suspension aliquots corresponding to […] were equilibrated in tubes containing Neu5Ac-PBS buffer by placing the tubes with opened caps for 60 min in a humidified incubator at 37° C. and 5% CO2 with continuous shaking at 30 strokes per minute; during this Neu5Ac-supplementation step, negative controls were maintained in non-supplemented PBS. Step 4, the Neu5Ac-PBS solution was decanted, the tubes were gently tapped to loosen the gravity-pelleted cells, and then rinsed twice in warm (37° C.) PBS followed by pelleting by 5 min of centrifugation each time, this process provided an additional 30 min of nutrient-deprivation in the absence of supplemental Neu5Ac. The entire 5 step process results in 2 h of nutrient deprivation, after which the cells were analyzed by the methods listed below with the exception of the wound healing assays and lectin staining which used cells that were nutrient-deprived under adherent conditions. Protocol for nutrient deprivation of adherent cells. Step 1, cells were cultured on sterile glass microscope cover slips for two days. Step 2, the cover slips were placed in a sterile plastic rack in warm (37° C.) PBS buffer for 30 min, then the PBS was replaced with Neu5Ac-PBS solution for 60 min to provide Neu5Ac supplementation (controls were maintained in non-supplemented PBS), and then the cell-laden cover slips were placed back in PBS buffer for 30 min. All incubations were performed in a humidified incubator at 37° C. and 5% CO2 with continuous shaking at 30 strokes per minute. Overall this process mimics the non-adherent treatment conditions with respect to the duration of nutrient-deprivation (2 h total) and Neu5Ac supplementation (60 min).
(§2) Cells were split and cultured (before feeding experiments) in RPMI1640 medium supplemented with 1% heat-inactivated human serum (RPMI/HUS) instead of FBS, resulting in chase-out of existing Neu5Gc. Subsequently, cells were fed with 10 mM Neu5Gc in RPMI/HUS medium or under nutrient deprived conditions as described above.
(§3) PBS-washed cells (1 Million) (untreated or Neu5Ac treated) were lysed by hypotonic shock in 1 mL water (15 min, 4° C.). The intracellular cytidine-5′-monophospho-N-acetylneuraminic acid (CMP-Neu5Ac) and uridine-5′-diphospho-N-acetyl-D-glucosamine (UDP-GlcNAc) were purified from the cell lysates and analyzed by ion-pair reversed-phase high performance liquid chromatography (IP RP HPLC) using a ODS column as described. Cell membrane-bound Neu5Ac (from untreated and Neu5Ac treated) and Neu5Gc (from untreated and Neu5Gc treated) were determined by acid hydrolysis followed by derivatization with 1,2-diamino-4,5-methylenedioxybenze (DMB) and HPLC separation as previously described. The content of CAMP-Neu5Ac, UDP-GlcNAc, surface Neu5Ac, and surface Neu5Gc was shown in nano mole per mg cell protein from five independent experiments.
(§4) Table-1: Quantification of nucleotide sugars, surface Nec5Ac, UDP-GlcNAc, Neu5Gc: Cells were treated in the presence and absence of 10 mM Nue5Ac for 2 h under nutrient deprivation and quantity of CMP-Neu5Ac (A), surface Neu5Ac (B), and UDP-GlcNAc (C) were determined. D. For quantification of surface Neu5Gc cells were treated with 10 mM Neu5Gc for 2 hrs under nutrient deprivation. The content of CMP-Neu5Ac, UDP-GlcNAc and Neu5Gc was shown in nano mole per mg cell protein from 5 independent experiments.

[2] = tested on: MDA MB231; assay: as above
Experimental: as §1, §2, §3, §4

[3] = tested on: MCF10A; assay: as above
Experimental: as §1, §2, §3, §4

[4] = tested on: MCF7; assay: as above
Experimental: as §1, §2, §3, §4

[5] = tested on: T47D; assay: as above
Experimental: as §1, §2, §3, §4

[6] = tested on: cancer and normal control cells; assay: TUNEL assay flow cytometry of apoptosis after sialic acid treatment
Experimental: For this purpose, cells were fixed by suspending them in 70% (v/v) ethanol and stored at 4° C. for 15 min, washed twice with cold PBS, and then placed in 96-well plates (1×10^4 cells per well). The cells were then stained with the fluorescein isothiocyanate-labeled lectins (SWGA, WGA, SNA and MAL-1). For the comparison of mean fluorescence intensities, the instrument settings for fluorescence and compensation were the same for all experiments. Data were collected from at least 10,000 cells for each sample. For TUNEL assay, cells were incubated with DNA-labeling solution (10 μL reaction buffer, 0.75 μL TdT enzyme, 8 μL BrdUTP, 31.25 μL of dH2O) for 1 h at 25° C. Each sample was then exposed to an antibody solution consisting of 5 μL Alexa Fluor 488 labeled anti-BrdU antibody with 95 μL rinse solution and allowed to react for 20 min.
FIG. 6: Optimization of conditions for nutrient deprivation and rescue via sialic acid supplementation. […] Data are the representative of five independent experiments.

[7] = tested on: MDA MB231 cells; assay: Microarray of genes upregulated after sialic acid treatment under nutrient deprivation
Experimental: The membrane glycosylation of the cancer cells is synchronized by the alteration of gene expression. The microarray was performed aiming to identify the genes that had undergone changes induced by the enriched sugar environment. […] Inventors examined the status of the expression of those genes at both transcriptional and translational level, in another word, at mRNA and protein level by performing the quantitative real time polymerase chain reaction (qRT-PCR) and immunoblot. Remarkably, qRT-PCR and Western blot are 2 techniques that are used to quantify the expression of mRNA and protein. Data of qRT-PCR and Western blot were in strong agreement with the microarray data indicating a clear link between the expression of those genes and glycosylation of cell membrane domain. This patent aims to pursue the cancer cell management by targeting those genes at mRNA and protein level. Small interference RNA (siRNA) and small hairpin RNA (shRNA) will be designed to knockdown the mRNA. Similarly, the functions of the genes at protein level will be inhibited or disrupted by using antibody, small peptide, pharmaceutical blocker, and targeted toxin. Regression of cancer cells will be verified following transcriptional and translational manipulation.

[8] = tested on: cancer cells T47D, MCF7, MDA MB231; assay: Membrane glycosylation of cancer cells compared to normal control cells (Table 1 summary); settings: 10 mM, all the cancer cells compared to control normal cells
Experimental: as §3
Human normal mammary epithelial cell lines MCF10A and HB4A and breast cancer cell lines T47D, MCF7 and MDA MB231 (American Type Culture Collection, USA) used in the study were cultured and treated according to the methods described earlier. Cells were nutritionally deprived using different time points followed by the sialic acid supplementation according to the method described earlier. […] The data were in strong agreement with the immunoblot data which were derived by assessing different enzymes responsible for glycosylation. […]

[9] = treated with 10 mM Neu5Ac for 2 h under nutrient deprivation
[10] = MDA MB231, treated with 10 mM Neu5Ac for 2 h under nutrient deprivation
[11] = MCF7, treated with 10 mM Neu5Ac for 2 h under nutrient deprivation
[12] = 10 mM sialic acid under nutrient deprivation relative to the untreated control
[13] = treated with 10 mM Neu5Gc for 2 hrs under nutrient deprivation

CC(=O)N[C@H]1[C@H]([C@H](O)[C@H](O)CO)OC(O)(C(=O)O)C[C@@H]1O (some centres unmarked) [Neu5Ac, N-acetyl-5-neuraminic acid]
CMP-Neu5Ac [1, 9]: 0.51 ± 1.33 nano mole per mg cell protein
UDP-GlcNAc [1, 9]: 5.32 ± 7.41 nano mole per mg cell protein
surface Neu5Ac [1, 9]: 1.83 ± 2.09
CMP-Neu5Ac [2, 10]: 2.496 ± 2.63 nano mole per mg cell protein
UDP-GlcNAc [2, 10]: 12.53 ± 4.2 nano mole per mg cell protein
surface Neu5Ac [2, 10]: 7.12 ± 4.91
CMP-Neu5Ac [3, 9]: 0.45 ± 1.92 nano mole per mg cell protein
UDP-GlcNAc [3, 9]: 5.18 ± 2.52 nano mole per mg cell protein
surface Neu5Ac [3, 9]: 1.81 ± 2.15
CMP-Neu5Ac [4, 11]: 2.253 ± 1.77 nano mole per mg cell protein
UDP-GlcNAc [4, 11]: 12.40 ± 3.66 nano mole per mg cell protein
surface Neu5Ac [4, 11]: 7.05 ± 3.95
CMP-Neu5Ac [5, 9]: 1.06 ± 1.42 nano mole per mg cell protein
UDP-GlcNAc [5, 9]: 6.513 ± 5.3 nano mole per mg cell protein
surface Neu5Ac [5, 9]: 5.07 ± 4.56
apoptosis ([6]; 180 minutes, both cell types, cancer and normal control cells): significant apoptosis
apoptosis ([6]; 240 minutes, both cell types, cancer and normal control cells): significant apoptosis
apoptosis ([6]; cells treated for 120 minutes, 10 mM sialic acid, nutrient deprived condition): no apoptosis
Log2 Ratio, CHI3L2 [7, 12]: 2.68
Log2 Ratio, EQTN [7, 12]: 3.078
Log2 Ratio, OSMR [7, 12]: 2.215
Log2 Ratio, PCMTD1 [7, 12]: 2.118
Log2 Ratio, PHLDA1 [7, 12]: 2.626
Log2 Ratio, RICTOR [7, 12]: 2.334
Log2 Ratio, RSRP1 [7, 12]: 2.33
Log2 Ratio, RUNX2 [7, 12]: 2.21
Log2 Ratio, SCG2 [7, 12]: 2.171
Log2 Ratio, SEC24D [7, 12]: 2.199
expression of 10 particular genes in sialic acid treated cancer cells ([7]; compared to normal control cells): more than 5 folds

O=C(CO)N[C@H]1[C@H]([C@H](O)[C@H](O)CO)OC(O)(C(=O)O)C[C@@H]1O (some centres unmarked) [Neu5Gc, N-glycolylneuraminic acid]
surface Neu5Gc [1, 13]: 0.182 ± 0.73 nano mole per mg cell protein
surface Neu5Gc ([2]; MDA MB231, treated with 10 mM Neu5Gc for 2 hrs under nutrient deprivation): 1.79 ± 0.982 nano mole per mg cell protein
surface Neu5Gc [3, 13]: 0.177 ± 0.31 nano mole per mg cell protein
surface Neu5Gc ([4]; MCF7, treated with 10 mM Neu5Gc for 2 hrs under nutrient deprivation): 1.58 ± 0.912 nano mole per mg cell protein
surface Neu5Gc [5, 13]: 0.608 ± 0.675 nano mole per mg cell protein
glycosylation of membrane [8]: upregulated the glycosylation significantly
